Assay [1] addresses KRAS protein containing G12D mutation (Homo sapiens (Human), UniProt P01116, G12D). As to the kind of experiment: SOS-catalyzed nucleotide exchange assay (GNE), TR-FRET. The format is biochemical. Particulars: biotinylated KRAS G12D, SOS and GTP, 60-minute incubation. Here is the method: Compounds are added to this complex and then after a 60-minute incubation time the mixture is treated with SOS and unlabeled GTP. Small molecule inhibitors stabilize the Bodipy-GDP complex whereas the untreated protein rapidly exchanges Bodipy-GDP for unlabeled GTP resulting in reduced TR-FRET signal.
This solution is referred to as biotinylated KRAS G12D stock solution.

In assay [2] the test system is AsPC-1 cells containing homozygous KRAS-G12D activating mutation. As to the kind of experiment: Cellular phospho-ERK assay (Examples 1a-106). The format is cell-based. The following applies: read-out: IC50 (nM) pERK (Cell). The source says:
5% CO? overnight. […] Assay plates were read on a EnVision Multimode Plate Reader (PerkinElmer) and the ratio of p-Erk vs total Erk in each well was used as the final readout.

Setting [3] is: Homo sapiens, ASPC1, 2 h, AsPC-1 cells, 2 hours, ratio of p-Erk vs total Erk.
Where [4] appears, read: AsPC-1 cells, 2 hours, ratio of p-Erk vs total Erk.

In patent US20240239788A1, “SMALL MOLECULE INHIBITORS OF KRAS G12D MUTANT” (Merck Sharp & Dohme LLC, priority 2021, published 2024) one finds IC50 data, which are given here for 22 molecules.

Where a name gives a salt, the structure may show the parent alone. Read-outs that look alike come from different tables or passages of the source.

Sequence of KRAS protein containing G12D mutation (P01116 other isoform, or with tags, fused parts or gaps G12D (already in the parent)): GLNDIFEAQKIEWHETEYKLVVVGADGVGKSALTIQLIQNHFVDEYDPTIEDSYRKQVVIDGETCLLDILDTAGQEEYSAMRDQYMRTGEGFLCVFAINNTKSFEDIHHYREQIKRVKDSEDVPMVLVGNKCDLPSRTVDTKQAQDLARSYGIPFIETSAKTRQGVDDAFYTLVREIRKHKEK

`Cc1c(Cl)cc2[nH]nc(C)c2c1-c1c(F)cc2c(N3C[C@H]4CC[C@@](C)(C3)N4)nc(OC[C@]3(CN(C)C)CC3(F)F)nc2c1F` [Ex 75, 1-((1R)-1-(((7-(6-chloro-3,5-dimethyl-1H-indazol-4-yl)-6,8-difluoro-4-((1S,5R)-1-methyl-3,8-diazabicyclo[3.2.1]octan-3-yl)quinazolin-2-yl)oxy)methyl)-2,2-difluorocyclopropyl)-N,N-dimethylmethanamine]: the IC50 in assay [1] is 1440 nM; in assay [2] (setting [3]) it was 7160 nM.

On to `Cc1c(Cl)cc2[nH]nc(Cl)c2c1-c1c(F)cc2c(N3C[C@H]4CC[C@@](C)(C3)N4)nc(OCC3(CN4CC[C@@H](F)C4)CC3)nc2c1F` [Ex 78, 7-(3,6-dichloro-5-methyl-1H-indazol-4-yl)-6,8-difluoro-2-((1-(((R)-3-fluoropyrrolidin-1-yl)methyl)cyclopropyl)methoxy)-4-((1S,5R)-1-methyl-3,8-diazabicyclo[3.2.1]octan-3-yl)quinazoline], for which the IC50 in assay [1] came to 1630 nM; in assay [2] (setting [3]), 6370 nM.

In the case of `Cc1cc(N)nc(-c2c(F)cc3c(N4CC5CCC(C4)N5)nc(OCC4(CN5CCOCC5)CC4)nc3c2F)c1Cl` [Ex 88, 6-(4-((1R,5S)-3,8-diazabicyclo[3.2.1]octan-3-yl)-6,8-difluoro-2-((1-(morpholinomethyl)cyclopropy)methoxy)quinazolin-7-yl)-5-chloro-4-methylpyridin-2-amine], the IC50 was determined as 1350 nM in assay [1] and 13200 nM in assay [2] (setting [3]).

On to `C=C[C@H]1[C@@H]2CC[C@@H](CN2)N1c1nc(OCC2(CN(C)C)CC2)nc2c(F)c(-c3cc(O)cc4ccccc34)c(F)cc12` [Ex. 6a, 4-(2-((1-((dimethylamino)methyl)cyclopropyl)methoxy)-6,8-difluoro-4-((1S,3S,4S)-3-vinyl-2,5-diazabicyclo[2.2.2]octan-2-yl)quinazolin-7-yl)naphthalen-2-ol], for which the IC50 amounted to 159 nM in assay [1] and 13300 nM in assay [2] (setting [3]).

For the molecule `Nc1nc2c(-c3c(Cl)cc4c(N5CC6CCC(C5)N6)nc(OCC5(CN6CCOCC6)CC5)nc4c3F)cccc2o1` [Example 59, 4-(4-(3,8-diazabicyclo[3.2.1]octan-3-yl)-6-chloro-8-fluoro-2-((1-(morpholinomethyl)cyclopropyl)methoxy)quinazolin-7-yl)benzo[d]oxazol-2-amine], the IC50 in assay [1] was determined as 20.1 nM; in assay [2] (setting [3]) it was 2210 nM.

As to `CC[C@@H]1N[C@H]2CC[C@@H]1N(c1nc(OCC3(CN(C)C)CC3)nc3c(F)c(-c4cc(O)cc5ccccc45)c(Cl)cc13)C2` [Example 40, 4-(6-chloro-2-((1-((dimethylamino)methyl)cyclopropyl)methoxy)-4-((1S,4S,6S)-6-ethyl-2,5-diazabicyclo[2.2.2]octan-2-yl)-8-fluoroquinazolin-7-yl)naphthalen-2-ol], the IC50 was determined as 689 nM in assay [1] and 22000 nM in assay [2] (setting [3]).

`Oc1cc(-c2c(F)cc3c(N4CC5CC(F)C(C4)N5)nc(OCC4(CN5CCOCC5)CC4)nc3c2F)c2ccccc2c1` (single isomer, unassigned) [Ex. 3b, 4-(6,8-difluoro-4-(6-fluoro-3,8-diazabicyclo[3.2.1]octan-3-yl)-2-((1-(morpholinomethyl)cyclopropyl)methoxy)quinazolin-7-yl)naphthalen-2-ol]: the results for the IC50 in assay [1] and in assay [2] (setting [4]) were 2160 nM and 8240 nM, respectively.

`Fc1cc2c(N3CC4CCC(C3)N4)nc(OCC3(CN4CCOCC4)CC3)nc2c(F)c1-c1cccc2sncc12` [Example 50, 4-((1-(((7-(benzo[d]isothiazol-4-yl)-4-(3,8-diazabicyclo[3.2.1]octan-3-yl)-6,8-difluoroquinazolin-2-yl)oxy)methyl)cyclopropyl)methyl) morpholine]: the results for the IC50 in assay [1] and in assay [2] (setting [3]) were 5180 nM and 20300 nM, respectively.

`CN(C)CC1(COc2nc(N3CC4CCC(C3)N4)c3cc(Cl)c(-c4c5ccccc5cc5[nH]c(=O)[nH]c45)c(F)c3n2)CC1` [Example 46, 4-(4-(3,8-diazabicyclo[3.2.1]octan-3-yl)-6-chloro-2-((1-((dimethylamino)methyl)cyclopropyl)methoxy)-8-fluoroquinazolin-7-yl)-1,3-dihydro-2H-naphtho[2,3-d]imidazol-2-one]: the IC50 in assay [1] stood at 9340 nM; in assay [2] (setting [3]), 50800 nM.

As for `Fc1c(-c2ccc(F)c3scnc23)c(Cl)cc2c(N3CC4CCC(C3)N4)nc(OCC3(CN4CCOCC4)CC3)nc12` [Example 53, 4-((1-(((4-(3,8-diazabicyclo[3.2.1]octan-3-yl)-6-chloro-8-fluoro-7-(7-fluorobenzo[d]thiazol-4-yl)quinazolin-2-yl)oxy)methyl)cyclopropyl)methyl) morpholine], the IC50 was 2780 nM in assay [1] and 11000 nM in assay [2] (setting [3]).

Take `NC(=O)C1(COc2nc(N3CC4CCC(C3)N4)c3cc(F)c(-c4cc(O)cc5ccccc45)c(F)c3n2)CNC1` [Example 15, 3-(((4-(3.8-diazabicyclo[3.2.1]octan-3-yl)-6,8-difluoro-7-(3-hydroxynaphthalen-1-yl)quinazolin-2-yl)oxy)methyl)azetidine-3-carboxamide]: the IC50 in assay [1] worked out at 2140 nM; in assay [2] (setting [3]), 50800 nM.

On to `CN(C)CC1(COc2nc(N3C[C@H]4CC[C@@H](C3)N4)c3cc(Cl)c(-c4cccc5cccc(C#N)c45)c(F)c3n2)CC1` [Example 60, 8-(4-((1R,5S)-3,8-diazabicyclo[3.2.1]octan-3-yl)-6-chloro-2-((1-((dimethylamino)methyl)cyclopropyl)methoxy)-8-fluoroquinazolin-7-yl)-1-naphthonitrile], for which the IC50 in assay [1] was 1590 nM; in assay [2] (Homo sapiens, ASPC1, 2 h) it was 8760 nM.

In the case of `Cc1c(Cl)cc2[nH]nc(C)c2c1-c1c(F)cc2c(N3CC4CCC(C3)N4)nc(OCC3(CN4CCOCC4)CC3)nc2c1F` [Ex 74, 4-((1-(((4-(3,8-diazabicyclo[3.2.1]octan-3-yl)-7-(6-chloro-3,5-dimethyl-1H-indazol-4-yl)-6,8-difluoroquinazolin-2-yl)oxy)methyl)cyclopropyl)methyl) morpholine], the figures for the IC50 in assay [1] and in assay [2] (setting [3]) were 69.1 nM and 2000 nM, respectively.

For the molecule `Cc1cc2[nH]ncc2c(C2Cc3nc(OC[C@]4(CN(C)C)CC4(F)F)nc(N4C[C@H]5CC[C@@](C)(C4)N5)c3C(=O)O2)c1C(F)(F)F` (single isomer, unassigned) [Ex. 96a], the IC50 is 1280 nM in assay [1] and 20800 nM in assay [2] (setting [4]).

As to `Cc1c(Cl)cc2[nH]nc(C)c2c1-c1c(F)cc2c(N3CC4CCC(C3)N4)nc(OCC3(CN4CC[C@@H](F)C4)CC3)nc2c1F` (single isomer, unassigned) [Ex 71a], the IC50 in assay [1] worked out at 18.9 nM; in assay [2] (setting [4]), 505 nM.

For `Cc1cc2[nH]ncc2c(C2Cc3nc(OCC4(CN5CC[C@@H](F)C5)CC4)nc(N4C[C@H]5CC[C@@](C)(C4)N5)c3C(=O)N2)c1C(F)(F)F` (stereo partly drawn) [Ex. 98b, 2-((1-(((R)-3-fluoropyrrolidin-1-yl)methyl)cyclopropyl)methoxy)-7-(6-methyl-5-(trifluoromethyl)-1H-indazol-4-yl)-4-((1S,5R)-1-methyl-3,8-diazabicyclo[3.2.1]octan-3-yl)-7,8-dihydropyrido[4,3-d]pyrimidin-5(6H)-one], the IC50 was 11100 nM in assay [1] and 50800 nM in assay [2] (setting [3]).

Regarding `Cc1cc2[nH]ncc2c(-c2c(F)cc3c(N4CC5CCC(C4)N5)nc(OCC4(CN(C)C)CC4(F)F)nc3c2F)c1C` (single isomer, unassigned) [Example 66a, 1-(1-(((4-(3,8-diazabicyclo [3.2.1]octan-3-yl)-7-(5,6-dimethyl-1H-indazol-4-yl)-6,8-difluoroquinazolin-2-yl)oxy)methyl)-2,2-difluorocyclopropyl)-N,N-dimethylmethanamine], the IC50 in assay [1] is 54 nM; in assay [2] (setting [3]), 3460 nM.

On to `Oc1ccc(SC(F)(F)F)c(-c2c(F)cc3c(N4CC5CCC(C4)N5)nc(OCC4(CN5CCOCC5)CC4)nc3c2F)c1` [Example 48, 3-(4-(3,8-diazabicyclo[3.2.1]octan-3-yl)-6,8-difluoro-2-((1-(morpholinomethyl)cyclopropyl)methoxy)quinazolin-7-yl)-4-((trifluoromethyl)thio)phenol], for which the results for the IC50 in assay [1] and in assay [2] (setting [3]) were 529 nM and 6120 nM, respectively.

As to `C#Cc1cccc2cc(O)cc(-c3c(F)cc4c(N5C[C@H]6CC[C@@](C)(C5)N6)nc(OCC5(CN6CC[C@@H](F)C6)CC5)nc4c3F)c12` (single isomer, unassigned) [103b, TFA], the IC50 in assay [1] amounted to 458 nM; in assay [2] (AsPC-1 cells, 2 hours, ratio of p-Erk vs total Erk, TFA), 2480 nM.

As to `C#Cc1cccc2cc(O)cc(-c3c(F)cc4c(N5C[C@H]6CC[C@@](C)(C5)N6)nc(OC[C@]5(CO)CC5(F)F)nc4c3F)c12` (single isomer, unassigned) [Ex. 90], the IC50 in assay [1] worked out at 0.565 nM; in assay [2] (setting [3]), 564 nM.

As to `Oc1cc(-c2c(F)cc3c(N4CC5CCC(C4)N5)nc(N4CC5(CCCN5)C4)nc3c2F)c2ccccc2c1` [Example 14, 4-(4-(3.8-diazabicyclo[3.2.1]octan-3-yl)-6,8-difluoro-2-(2,5-diazaspiro[3.4]octan-2-yl)quinazolin-7-yl)naphthalen-2-ol], the values for the IC50 in assay [1] and in assay [2] (setting [3]) were 1570 nM and 24000 nM, respectively.

Take `CN(C)CC1(COc2nc(N3CC4CCC(C3)N4)c3cc(Cl)c(-c4cc(C(F)(F)F)cc5[nH]ncc45)c(F)c3n2)CC1` [Example 56, 1-(1-(((4-(3,8-diazabicyclo[3.2.1]octan-3-yl)-6-chloro-8-fluoro-7-(6-(trifluoromethyl)-1H-indazol-4-yl)quinazolin-2-yl)oxy)methyl)cyclopropyl)-N,N-dimethylmethanamine]: the concentration for half-maximal inhibition (IC50) in assay [1] was 4030 nM; in assay [2] (setting [3]), 6920 nM.
